From patent publication US4469848A, “Deodorant product for surface treatment” (priority 1978, dated 1984)

Molecular target: T1, lipoxidase (ECl.13.1.13) (Glycine max, UniProt P08170)
T1 sequence (P08170 1-839): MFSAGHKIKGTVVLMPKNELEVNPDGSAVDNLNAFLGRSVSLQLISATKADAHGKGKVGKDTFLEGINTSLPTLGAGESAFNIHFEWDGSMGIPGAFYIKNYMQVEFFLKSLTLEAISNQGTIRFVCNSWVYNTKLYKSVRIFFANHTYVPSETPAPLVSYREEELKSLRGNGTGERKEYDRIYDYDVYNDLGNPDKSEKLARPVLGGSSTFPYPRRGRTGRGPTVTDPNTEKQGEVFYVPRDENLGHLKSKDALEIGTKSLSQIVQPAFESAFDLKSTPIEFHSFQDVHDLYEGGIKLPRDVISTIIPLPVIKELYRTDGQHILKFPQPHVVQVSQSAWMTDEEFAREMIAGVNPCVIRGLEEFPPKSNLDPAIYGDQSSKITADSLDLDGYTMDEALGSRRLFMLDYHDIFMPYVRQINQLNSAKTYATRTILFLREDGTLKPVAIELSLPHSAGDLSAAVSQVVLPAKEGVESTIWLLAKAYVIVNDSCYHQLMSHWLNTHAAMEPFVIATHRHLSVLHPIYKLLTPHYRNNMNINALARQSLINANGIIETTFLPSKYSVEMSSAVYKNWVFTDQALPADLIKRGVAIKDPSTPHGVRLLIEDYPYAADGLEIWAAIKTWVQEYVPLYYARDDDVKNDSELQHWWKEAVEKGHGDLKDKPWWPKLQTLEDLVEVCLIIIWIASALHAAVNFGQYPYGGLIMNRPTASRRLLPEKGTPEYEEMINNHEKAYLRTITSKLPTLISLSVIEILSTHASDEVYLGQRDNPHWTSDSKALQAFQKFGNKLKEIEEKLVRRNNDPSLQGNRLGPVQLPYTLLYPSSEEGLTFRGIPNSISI
Experiment: Lipoxidase test: inhibition of lipoxidase-catalysed oxidation of linoleic acid to hydroperoxide (234 nm)
Type: biochemical
Conditions: 0.5% by weight solution of material in ethanol as test substrate solvent; pH 9.0 borate buffer

Molecule | lipoxidase inhibiting capacity (LIC), % inhibition [%]
Dimyrcetol | 16
Tetrahydromuguol | 24
i-Nonyl acetate | 50
i-Nonyl formate | 19

System: not listed separately
Experiment: Morpholine test: depression of partial vapour pressure of morpholine relative to Raoult's Law (headspace GC)
Conditions: material 1 g + morpholine 0.25 g, 37° C., 30 minutes

Molecule | Raoult variance ratio (RVR)
CCCCCCCC1CCCC1=O (stereo not drawn) [2-n-heptylcyclopentanone] | 1.05
CC1(C)CCCC2(C)C1CCC1(C)OCCC12 (stereo not drawn) [3a-Methyl-dodecahydro-6,6,9a-trimethylnaphtho(2,1-b)furan] | 1.30
O=C(OCc1ccccc1)c1ccccc1O [Benzyl salicylate] | 1.58
Cc1ccc(C(C)C)cc1O [Carvacrol] | 1.43
O=c1ccc2ccccc2o1 [Coumarin] | 1.22
CCOC(=O)c1ccccc1C(=O)OCC [Diethyl phthalate] | 1.20
CCOc1cc(C=O)ccc1O [Ethyl vanillin] | 1.43
CCCCCCC(CCOC(C)=O)OC(C)=O (stereo not drawn) [Nonanediol-1,3-diacetate] | 1.17
CCCCCC1CCC(=O)O1 (stereo not drawn) [Nonanolide-1:4] | 0.87
OCCc1ccccc1 [Phenylether alcohol] | 1.24
CC(C)CCOC(=O)c1ccccc1O [iso-Amyl salicylate] | 1.24
C/C=C\c1ccc(O)c(OC)c1 [iso-Eugenol] | 1.48
CC(=O)OC1CCCCC1C(C)(C)C (stereo not drawn) [o-t-Butylcyclohexyl acetate] | 1.08
CCC(C)(C)C1CCC(=O)CC1 [p-t-Amyl cyclohexanone] | 1.10
CC(=O)OC1CCC(C(C)(C)C)CC1 (stereo not drawn) [p-t-Butylcyclohexyl acetate] | 0.98
CC(=O)c1ccc2ccccc2c1 [β-Methyl naphthyl ketone] | 0.96
Dimyrcetol | 1.22
Tetrahydromuguol | 1.23
i-Nonyl acetate | 0.83
i-Nonyl formate | 1.49
